# Data: patent publication US11680056B2, “MK2 inhibitors and uses thereof” (Xinthera, Inc., priority 2021, dated 2023)
# Where two headings read alike, the source gives them in different places.
# Experiments:
# p38a/MK2 = p38a/MK2 (Homo sapiens (Human), UniProt P49137+Q16539); test: p38a/MK2 biochemical assay: activation of MK2 by p38, FITC-HSP27 peptide phosphorylation (IMAP FP); conditions: 10-point 1:3 dilution, 60 pM active p38a, 1 nM inactive MK2, 10 μM ATP, 2 h incubation
# p38a/PRAK = p38a/PRAK (Homo sapiens (Human), UniProt Q16539); test: p38a/PRAK biochemical assay: activation of PRAK by p38, FITC-HSP27 peptide phosphorylation (IMAP FP); conditions: 10-point 1:3 dilution, top dose 300 μM; 60 pM active p38a, 1 nM inactive PRAK, 10 μM ATP, 2 h incubation; read-out: p38a/PRAK Enzyme pIC50 (converted)
# Chain of p38a/PRAK (Q16539 whole entry): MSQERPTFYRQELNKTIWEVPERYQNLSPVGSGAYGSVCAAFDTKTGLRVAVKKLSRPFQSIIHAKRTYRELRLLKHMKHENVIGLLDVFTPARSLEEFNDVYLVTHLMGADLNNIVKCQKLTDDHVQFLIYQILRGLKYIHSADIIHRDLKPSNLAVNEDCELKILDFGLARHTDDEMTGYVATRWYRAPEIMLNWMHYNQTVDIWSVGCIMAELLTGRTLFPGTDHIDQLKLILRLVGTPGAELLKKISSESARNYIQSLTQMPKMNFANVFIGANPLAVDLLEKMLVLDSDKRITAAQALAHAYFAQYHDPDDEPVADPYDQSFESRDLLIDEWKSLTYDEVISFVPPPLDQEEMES
# Procedure, shortened: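 GST-tagged MK2 (F46–H400) and PRAK (M1–Q471), expressed in E. coli, activated by p38 and phosphorylate FITC-HSP27 peptide over 2 h with compound; readout by IMAP fluorescence polarisation (ex 485/em 528 nm). Ten-point 1:3 dilutions, top dose 1 μM for MK2 and 300 μM for PRAK. IC50 after vehicle normalisation; selectivity = IC50(PRAK)/IC50(MK2).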
# [1] = top dose 1 μM, read-out: p38a/MK2 (1 μM) Enzyme pIC50 (converted)
# [2] = top dose 10 μM, read-out: p38a/MK2 (10 μM) Enzyme pIC50 (converted)
# Chain of p38a/MK2 (P49137 46-400): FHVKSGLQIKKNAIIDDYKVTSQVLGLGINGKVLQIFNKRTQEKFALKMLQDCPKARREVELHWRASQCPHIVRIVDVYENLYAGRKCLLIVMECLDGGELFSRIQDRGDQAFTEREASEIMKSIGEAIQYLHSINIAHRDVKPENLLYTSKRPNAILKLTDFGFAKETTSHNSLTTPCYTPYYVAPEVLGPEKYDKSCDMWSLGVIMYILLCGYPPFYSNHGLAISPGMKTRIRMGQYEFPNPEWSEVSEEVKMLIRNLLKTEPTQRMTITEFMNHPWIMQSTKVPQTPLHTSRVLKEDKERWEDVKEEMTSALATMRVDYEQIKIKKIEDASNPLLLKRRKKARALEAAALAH
# Chain of p38a/MK2 (Q16539 whole entry): as the sequence (Q16539 whole entry) above
IC50 (p38a/MK2; [1]) [nM],IC50 (p38a/PRAK) [nM],IC50 (p38a/MK2; [2]) [nM],SMILES
> 1000,> 316000,,"Cc1cnc(-c2ccnc(CC3(O)CC3)n2)cc1-n1c(C)cc(OCc2ncc(F)cc2F)c(Cl)c1=O (single isomer, unassigned) [Example 48B, rel-3-chloro-4-[(3,5-difluoropyridin-2-yl)methoxy]-2′-{2-[(1-hydroxycyclopropyl)methyl]pyrimidin-4-yl}-5′,6-dimethyl-[1,4′-bipyridin]-2-one]"
0.2,398,,"[2H]C([2H])(Oc1cc(C)n(-c2c(C)cnc(-c3cccc(C(C)(C)O)[n+]3[O-])c2F)c(=O)c1Cl)c1ncc(F)cc1F (single isomer, unassigned) [Example 68B, rel-4′-{3-chloro-4-[(3,5-difluoropyridin-2-yl) (2H2)methoxy]-6-methyl-2-oxopyridin-1-yl}-3′-fluoro-6-(2-hydroxypropan-2-yl)-5′-methyl-[2,2′-bipyridin]-1-ium-1-olate]"
> 1000,> 316000,,"Cc1c(-n2c(C)cc(OCc3ncc(F)cc3F)c(Cl)c2=O)ccnc1-n1ccc(C(C)(C)O)n1 (single isomer, unassigned) [Example 52A, rel-3-chloro-4-((3,5-difluoropyridin-2-yl)methoxy)-2′-(3-(2-hydroxypropan-2-yl)-1H-pyrazol-1-yl)-3′,6-dimethyl-2H-[1,4′-bipyridin]-2-one]"
1.26,794,,"[2H]C([2H])(Oc1cc(C)n(-c2c(C)cnc(-c3ccnc(C(C)(C)O)n3)c2F)c(=O)c1Cl)c1ncc(F)cc1F (single isomer, unassigned) [Example 57A, rel-3-chloro-4-[(3,5-difluoropyridin-2-yl)(2H2)methoxy]-3′-fluoro-2′-[2-(2-hydroxypropan-2-yl)pyrimidin-4-yl]-5′,6-dimethyl-[1,4′-bipyridin]-2-one]"
1.58,794,,"Cc1cnc(-c2cccc(C(C)(C)O)[n+]2[O-])c(F)c1-n1c(C)cc(OCc2ncc(F)cc2F)c(Cl)c1=O (single isomer, unassigned) [Example 62A, rel-3-chloro-4-((3,5-difluoropyridin-2-yl)methoxy)-3′-fluoro-6″-(2-hydroxypropan-2-yl)-5′,6-dimethyl-2-oxo-2H-[1,4′:2′,2″-terpyridine] 1″-oxide]"
25.1,6310,,"Cc1cnc(-n2ccc(C(=O)NC3CC3)n2)cc1-n1c(C)cc(OCc2ncc(F)cc2F)c(Cl)c1=O [Example 44A, rel-1-{3-chloro-4-[(3,5-difluoropyridin-2-yl)methoxy]-5′,6-dimethyl-2-oxo-[1,4′-bipyridin]-2′-yl}-N-cyclopropylpyrazole-3-carboxamide]"
3.98,200,,"[2H]C([2H])(Oc1cc(C)n(-c2c(C)cnc(-c3ccnc(C(C)(C)O)c3F)c2F)c(=O)c1Cl)c1ncc(F)cc1F (single isomer, unassigned) [Example 65A, rel-3-chloro-1-[3,3′-difluoro-2′-(2-hydroxypropan-2-yl)-5-methyl-[2,4′-bipyridin]-4-yl]-4-[(3,5-difluoropyridin-2-yl)(2H2)methoxy]-6-methylpyridin-2-one]"
15.8,5010,,"Cc1cnc(-c2ccnc(C(O)C3CC3)n2)cc1-n1c(C)cc(OCc2ncc(F)cc2F)c(Cl)c1=O (single isomer, unassigned) [Example 35B, rel-3-chloro-2′-{2-[cyclopropyl(hydroxy)methyl]pyrimidin-4-yl}-4-[(3,5-difluoropyridin-2-yl)methoxy]-5′,6-dimethyl-[1,4′-bipyridin]-2-one]"
2,5010,,"Cc1cnc(-n2ccc(C(C)(C)O)n2)cc1-n1c(C)cc(OCc2ncc(F)cc2Cl)c(Cl)c1=O (single isomer, unassigned) [Example 47A, rel-3-chloro-4-[(3-chloro-5-fluoropyridin-2-yl)methoxy]-2′-[3-(2-hydroxypropan-2-yl)pyrazol-1-yl]-5′,6-dimethyl-[1,4′-bipyridin]-2-one]"
> 100,> 316000,,"[2H]C([2H])([2H])C(O)(c1nccc(-c2ncc(C)c(-n3c(C)cc(OCc4ncc(F)cc4F)c(Cl)c3=O)c2F)n1)C([2H])([2H])[2H] (single isomer, unassigned) [Example 66A, rel-3-chloro-4-((3,5-difluoropyridin-2-yl)methoxy)-3′-fluoro-2′-(2-(2-hydroxypropan-2-yl-1,1,1,3,3,3-d6)pyrimidin-4-yl)-5′,6-dimethyl-2H-[1,4′-bipyridin]-2-one]"
1.58,316,,"[2H]C([2H])(Oc1cc(C)n(-c2c(C)cnc(-c3ccnc(C(O)(C([2H])([2H])[2H])C([2H])([2H])[2H])n3)c2F)c(=O)c1Cl)c1ncc(F)cc1F (single isomer, unassigned) [Example 67A, rel-3-chloro-4-((3,5-difluoropyridin-2-yl)methoxy-d2)-3′-fluoro-2′-(2-(2-hydroxypropan-2-yl-1,1,1,3,3,3-d6)pyrimidin-4-yl)-5′,6-dimethyl-2H-[1,4′-bipyridin]-2-one]"
> 1000,> 316000,,"Cc1ncc(-c2ccnc(C(C)(C)O)n2)cc1-n1c(C)cc(OCc2ncc(F)cc2F)c(Cl)c1=O (single isomer, unassigned) [Example 45A, rel-3-chloro-4-[(3,5-difluoropyridin-2-yl)methoxy]-5′-[2-(2-hydroxypropan-2-yl)pyrimidin-4-yl]-2′,6-dimethyl-[1,3′-bipyridin]-2-one]"
> 1000,> 316000,,"Cc1cnc(-n2ccc(C(C)(C)O)n2)cc1-n1c(C)cc(OCc2ncc(F)cc2Cl)c(Cl)c1=O (single isomer, unassigned) [Example 47B, rel-3-chloro-4-[(3-chloro-5-fluoropyridin-2-yl)methoxy]-2′-[3-(2-hydroxypropan-2-yl)pyrazol-1-yl]-5′,6-dimethyl-[1,4′-bipyridin]-2-one]"

# Further lines, the compound ahead of its results:
SMILES,IC50 (p38a/MK2; [1]) [nM],IC50 (p38a/PRAK) [nM],IC50 (p38a/MK2; [2]) [nM]
"Cc1cnc(-c2ccnc(C(C)(C)CO)n2)cc1-n1c(C)cc(OCc2ncc(F)cc2F)c(Cl)c1=O (single isomer, unassigned) [Example 4A, rel-3-chloro-4-[(3,5-difluoropyridin-2-yl)methoxy]-2′-[2-(1-hydroxy-2-methylpropan-2-yl)pyrimidin-4-yl]-5′,6-dimethyl-[1,4′-bipyridin]-2-one]",1.58,3980,
"CCc1cnc(-c2ccnc(C(C)(C)O)n2)cc1-n1c(C)cc(OCc2ncc(F)cc2F)c(Cl)c1=O (single isomer, unassigned) [Example 29A, rel-3-chloro-4-((3,5-difluoropyridin-2-yl)methoxy)-5′-ethyl-2′-(2-(2-hydroxypropan-2-yl)pyrimidin-4-yl)-6-methyl-2H-[1,4′-bipyridin]-2-one]",7.94,12600,
"Cc1cnc(-c2ccnc([C@@](C)(O)C3CC3)n2)cc1-n1c(C)cc(OCc2ncc(F)cc2F)c(Cl)c1=O (single isomer, unassigned) [Example 6A, rel-3-chloro-2′-[2-(1-cyclopropyl-1-hydroxyethyl)pyrimidin-4-yl]-4-[(3,5-difluoropyridin-2-yl)methoxy]-5′,6-dimethyl-[1,4′-bipyridin]-2-one]",,10000,25.1
"Cc1cnc(-c2ccnc(C3(CO)CC3)n2)cc1-n1c(C)cc(OCc2ncc(F)cc2F)c(Cl)c1=O (single isomer, unassigned) [Example 21B, rel-3-chloro-4-((3,5-difluoropyridin-2-yl)methoxy)-2′-(2-(1-(hydroxymethyl)cyclopropyl)pyrimidin-4-yl)-5′,6-dimethyl-2H-[1,4′-bipyridin]-2-one]",3.16,2000,
"Cc1cnc(-c2ccc3c(n2)C(C)(O)CC3)cc1-n1c(C)cc(OCc2ncc(F)cc2F)c(Cl)c1=O (single isomer, unassigned) [Example 32C]",,6310,63.1
"Cc1cnc(-c2ccc(F)c(C(C)(C)O)n2)cc1-n1c(C)cc(OCc2ncc(F)cc2F)c(Cl)c1=O (single isomer, unassigned) [Example 24B, rel-3-chloro-4-[(3,5-difluoropyridin-2-yl)methoxy]-1-[5′-fluoro-6′-(2-hydroxypropan-2-yl)-5-methyl-[2,2′-bipyridin]-4-yl]-6-methylpyridin-2-one]",,> 316000,1580
"Cc1cnc(-c2ccc3c(n2)C(C)(O)CC3)cc1-n1c(C)cc(OCc2ncc(F)cc2F)c(Cl)c1=O (single isomer, unassigned) [Example 32D]",,> 316000,1260
"Cc1cnc(-c2cccc([C@@](C)(O)CO)n2)cc1-n1c(C)cc(OCc2ncc(F)cc2F)c(Cl)c1=O (single isomer, unassigned) [Example 36B, rel-3-chloro-4-[(3,5-difluoropyridin-2-yl)methoxy]-2′-[6-(1,2-dihydroxypropan-2-yl)pyridin-2-yl]-5′,6-dimethyl-[1,4′-bipyridin]-2-one]",6.31,15800,
"Cc1cnc(-c2ccnc(C(O)C3CC3)n2)cc1-n1c(C)cc(OCc2ncc(F)cc2F)c(Cl)c1=O (single isomer, unassigned) [Example 35A, rel-3-chloro-2′-{2-[cyclopropyl(hydroxy)methyl]pyrimidin-4-yl}-4-[(3,5-difluoropyridin-2-yl)methoxy]-5′,6-dimethyl-[1,4′-bipyridin]-2-one]",50.1,10000,
